The subject of data set [1] is Influenza B. Kind of data set: microbe, parasite or virus in culture. Type of data set: cell-based. Particulars: MDCK.
Data set [2] in a line: in vitro. Particulars: dog.
Data set [3] concerns Sindbis virus. Nature of the data set: microbe, parasite or virus in culture. Particulars: Vero, read-out: EC50 Sindbis virus. Type of data set: cell-based.
Data set [4] relates to Vero cells. To be noted: microscopically detectable alteration of normal cell morphology.
Data set [5] relates to Para-influenza-3 virus. Kind of data set: organism not typed. It counts as cell-based. Particulars: Vero, read-out: EC50 Para-influenza-3 virus.
The subject of data set [6] is Reovirus-1. Nature of the data set: organism not typed. To be noted: Vero, read-out: EC50 Reovirus-1. It counts as cell-based.
Data set [7] has as its system Punta toro virus. Nature of the data set: microbe, parasite or virus in culture. To be noted: Vero, read-out: EC50 Punta toro virus. It counts as cell-based.
The mark [8] stands for this setting: read-out: Antiviral EC50 Influenza B MTS.
[9] abbreviates: read-out: Antiviral EC50 Influenza B Visual CPE score.

Read-outs that look alike come from different tables or passages of the source. Some results are limits rather than exact numbers.

By EC50 is commonly meant the concentration giving half of the maximal effect. `CCC(CC)O[C@@H]1C=C(C(=O)O)C[C@H](N)[C@H]1NC(C)=O` [Oseltamivir carboxylate]: the results for the concentration for a half-maximal effect (EC50) in data set [1] (setting [8]) and in data set [1] (setting [9]) were 6.2 ± 0.33 µM and 4 ± 0.11 µM, respectively. Also, the CC50 in data set [2] is more than 100 µM.
For the molecule `NC12CC3CC(CC(C3)C1)C2` [Amantadine], the CC50 in data set [2] was more than 500 µM.
Still for that read-out and setting: for `CC(N)C12CC3CC(CC(C3)C1)C2` (stereo not shown) [Rimantadine] the value was more than 500 µM.
`NC(=O)c1ncn([C@@H]2O[C@H](CO)[C@@H](O)[C@H]2O)n1` [Ribavirin]: the EC50 in data set [3] was more than 250 µM; in data set [1] (setting [8]) it was 9.6 ± 0.98 µM; in data set [1] (setting [9]), 9 ± 0.56 µM; in data set [5], 112 µM; in data set [6], more than 250 µM. In data set [4], this molecule yielded a Minimum cytotoxic concentration of more than 250 µM.
Consider `Nc1ncnc2c1ncn2C[C@H](O)CO` [(S)-DHPA], for which the EC50 in data set [3], in data set [5], in data set [7] and in data set [6] was more than 250 µM in each case. In data set [4], the Minimum cytotoxic concentration was more than 250 µM.

(Values after paper PMC7115430 (European Journal of Medicinal Chemistry, 2014).)
